These results are taken from patent publication US11634688B2, “Methods and compositions for inducing hematopoietic cell differentiation” (FATE THERAPEUTICS, INC., priority 2015, dated 2023).

The test system of assay [1] is hiPSCs. Nature of the assay: generation of CD34+ HE from hiPSC monolayer differentiation, flow cytometry at about D10. It is filed as cell-based, human. Here is the method:
The above iHSC platform was further optimized for hematopoietic lineage cells differentiation. To initiate differentiation towards the hematopoietic lineage, hiPSCs were seeded as a monolayer on Day (D) 0 in the maintenance medium and allowed to adhere and expand for about 24 hours. At this point, the maintenance medium was removed and replaced with base medium without maintenance factors at D1. Hematopoietic differentiation was initiated at around D2 by switching the culture medium to iCD34-A (see FIG. 12). […] The monolayers were maintained until around D5-D6 at which point they were dissociated into single cells and seeded as a low density monolayer in iCD34-C medium until differentiation around D10. Low oxygen tension (2-10% O2) was maintained from the onset of hematopoietic differentiation around D2 up until around D10 of differentiation.
During the culture process, the directed differentiation towards the hematopoietic lineage was monitored by the dissociation of the monolayers into single cells and analysis for the surface marker expression of CD34, and optionally, CD43, CD45, CXCR4 and CD73 (FIG. 15A). At around D8 of differentiation, the appearance of a cell population representing HE was observed by the cell surface expression signature CD34+. CD43−CXCR4−CD73− was also observed in the CD34+ cells. The CD34+ population was maintained until around D10 (FIG. 15A). At D10, which time point can be shortened to about D9 or extended until about D12, the cells were dissociated into single cells and the CD34+ HE population was sorted by FACS using a BD FACS Aria for further analysis and functional assessment. […]
To optimize the efficient generation of HE from hiPSCs after around 10 days of differentiation several parameters were examined. The optimal plating density of the monolayers at DO of differentiation was assessed by plating increasing amounts of hiPSCs from 7.5×10^4/well to 1.5×10^5/well on matrigel™-coated 6 well culture dishes and then analyzing the generation of the CD34+ HE population at about D10. […]
The effect of the concentration of BMP4 modulation during the initial stages of hematopoietic differentiation on the generation of HE was assessed by treating the cultures with increasing concentrations of BMP4 ranging from 0 ng/ml to 30 ng/ml from about D2 to about D6 of differentiation. The generation of HE at D10 was assessed by the detection of the CD34+ HE population.
The Wnt pathway activator CHIR99021 is responsible for the induction of the definitive hematopoetic program from hiPSCs. The effect of the modulation of CHIR during the induction phase of the hematopoietic differentiation protocol was assessed by treating the cultures with increasing concentrations of CHIR from about D3.75 to about D6. […]
Background: A flow cytometer gives signals particle by particle.

Assay [2] relates to umbilical cord blood CD34+ cells. Nature of the assay: stromal-free NK cell differentiation on plate-bound DLL4, umbilical cord blood CD34+ cells. The note with it: plate-bound DLL4 vs stromal-based and stromal-free control cultures; 10-15 days. As for the experimental part: Specific to NK cells, enriched umbilical cord blood CD34+ cells were plated in iNK-A serum-free differentiation media containing SCF, Flt3L, IL3, IL15 and IL7 in culture plates containing DLL4 protein or control protein. After 5 days the iNK-B medium was maintained to complete NK cell differentiation. After approximately 10-15 days of culture, the culture was assessed for the generation of NK cell progenitors and the absence of myeloid cells. CD56, CD7 and CD161 are the first cell surface markers to be expressed during NK cell development. CD11b and CD14 are cell surface markers expressed on myeloid cell subsets. FIG. 29 depicts stromal-free differentiation of umbilical cord blood CD34+ cells towards NK cells. […] Early NK lineage markers identify the presence of proNK cells as defined by CD56, CD7 and CD161 and the absence of myeloid markers CD11b and CD14.

Assay [3] relates to Day 10 CD34+ iHE sorted cells. The experiment in a line: stromal-free NK cell differentiation on plate-bound DLL4, hiPSC-derived iHE. Format: cell-based, human. The settings on record: plate bound DLL4 vs control protein; CD45+ gating.
[4] abbreviates: CHIR from about D3.75 to about D6.

For `Cc1c[nH]c(-c2cnc(NCCNc3ccc(C#N)cn3)nc2-c2ccc(Cl)cc2Cl)n1` [CHIR99021, reference compound], in assay [1] (setting [4]), the “effect of increasing CHIR99021 concentration on percentage of HE subpopulation” value is given as “decreases the percentage of the HE subpopulation” and the “effect of increasing CHIR99021 concentration on total percentage of CD34+ cells” value is “increases the total percentage of CD34+ cells”.
Consider “DLL4: Notch activator, plate-bound DLL4 protein”, for which the “differentiation of CD56+CD7+CD161+ NK cell progenitors” value in assay [2] is “supports a more rapid and efficient differentiation of CD56+CD7+CD161+ NK cell progenitors”. Moreover, the “differentiation of NK cell progenitors and myeloid cells” value in assay [3] was “supports the differentiation of CD56+CD7+CD161+ NK cell progenitors but not CD11b+myeloid cells”.
On to IGF1: insulin-like growth factor 1, for which, in assay [1] (IGF1 and EPO added together at Day 8), the “effect of addition of IGF1 and EPO on percentage of HE at around D10” value is given as “decreases the percentage of HE”.

B1: BMP4: bone morphogenetic protein, BMP pathway activator (protein, UniProt P12644 293-408, looked up)
Bone morphogenetic protein 4: SPKHHSQRARKKNKNCRRHSLYVDFSDVGWNDWIVAPPGYQAFYCHGDCPFPLADHLNSTNHAIVQTLVNSVNSSIPKACCVPTELSAISMLYLDEYDKVVLKNYQEMVVEGCGCR
As for B1, in assay [1] (BMP4 0 ng/ml to 30 ng/ml from about D2 to about D6, CD34+ HE at D10), the “optimal concentration of BMP4 for HE population at D10” value is on record as “about 3 ng/mL”.
